In ChEMBL document CHEMBL4316596, “Antimicrobial Peptides with High Proteolytic Resistance for Combating Gram-Negative Bacteria” (J Med Chem, 2019):

Assays:
[1] = tested on: Escherichia coli; assay: Antimicrobial activity against Escherichia coli ATCC 25922 after 24 hrs by NCCLS-protocol based assay; format: functional; settings: ATCC 25922, 24 h
[2] = tested on: Escherichia coli; assay: Antimicrobial activity against Escherichia coli UB1005 after 24 hrs by NCCLS-protocol based assay; format: functional; settings: UB1005, 24 h
[3] = tested on: Escherichia coli; assay: Antimicrobial activity against Escherichia coli 078 after 24 hrs by NCCLS-protocol based assay; format: functional; settings: Escherichia coli, 078, 24 h
[4] = tested on: Escherichia coli; assay: Antimicrobial activity against Escherichia coli K88 after 24 hrs by NCCLS-protocol based assay; format: functional; settings: K88, 24 h
[5] = tested on: Escherichia coli; assay: Antimicrobial activity against Escherichia coli K99 after 24 hrs by NCCLS-protocol based assay; format: functional; settings: K99, 24 h
[6] = tested on: Pseudomonas aeruginosa; assay: Antimicrobial activity against Pseudomonas aeruginosa ATCC 27853 after 24 hrs by NCCLS-protocol based assay; format: functional; settings: ATCC 27853, 24 h
[7] = tested on: Pseudomonas aeruginosa; assay: Antimicrobial activity against Pseudomonas aeruginosa PAO1 after 24 hrs by NCCLS-protocol based assay; format: functional; settings: PAO1, 24 h
[8] = tested on: Pseudomonas aeruginosa; assay: Antimicrobial activity against Pseudomonas aeruginosa CICC 21630 clinical isolates after 24 hrs by NCCLS-protocol based assay; format: functional; settings: CICC 21630, 24 h
[9] = tested on: Pseudomonas aeruginosa; assay: Antimicrobial activity against Pseudomonas aeruginosa 26305 clinical isolates after 24 hrs by NCCLS-protocol based assay; format: functional; settings: Pseudomonas aeruginosa, 26305, 24 h
[10] = tested on: Pseudomonas aeruginosa; assay: Antimicrobial activity against Pseudomonas aeruginosa CICC 21625 clinical isolates after 24 hrs by NCCLS-protocol based assay; format: functional; settings: CICC 21625, 24 h
[11] = tested on: Pseudomonas aeruginosa; assay: Antimicrobial activity against Pseudomonas aeruginosa 25349 clinical isolates after 24 hrs by NCCLS-protocol based assay; format: functional; settings: Pseudomonas aeruginosa, 25349, 24 h
[12] = tested on: Salmonella typhimurium; assay: Antimicrobial activity against Salmonella typhimurium C7731 after 24 hrs by NCCLS-protocol based assay; format: functional, Salmonella enterica subsp. enterica serovar Typhimurium; settings: Salmonella enterica, C7731, 24 h
[13] = tested on: HEK-293T; assay: Cytotoxicity against HEK293T cells assessed as cell death after 18 to 24 hrs by MTT assay; format: cell-based; settings: Homo sapiens
[14] = tested on: Escherichia coli; assay: Bactericidal activity against Escherichia coli ATCC 25922 incubated for 4 hrs followed by culture spread on agar plates and cultured overnight; format: functional; settings: ATCC 25922, 4 h, read-out: MBC>99.9
[15] = Selectivity ratio of IC50 for mouse RAW264.7 cells to geometric mean of the peptide MBC for bacteria
[16] = Selectivity ratio of IC50 for HEK293T cells to geometric mean of the peptide MBC for bacteria
[17] = Selectivity ratio of IC50 for pig IPECJ2 cells to geometric mean of the peptide MBC for bacteria
[18] = tested on: Escherichia coli; assay: Bactericidal activity against Escherichia coli ATCC 25922 incubated for 4 hrs followed by culture spread on agar plates and cultured overnight in presence of NaCl; format: functional; settings: ATCC 25922, 4 h, read-out: MBC>99.9
[19] = tested on: Escherichia coli; assay: Bactericidal activity against Escherichia coli ATCC 25922 incubated for 4 hrs followed by culture spread on agar plates and cultured overnight in presence of CaCl2; format: functional; settings: ATCC 25922, 4 h, read-out: MBC>99.9
[20] = tested on: Escherichia coli; assay: Bactericidal activity against Escherichia coli ATCC 25922 incubated for 4 hrs followed by culture spread on agar plates and cultured overnight in presence of FeCl3; format: functional; settings: ATCC 25922, 4 h, read-out: MBC>99.9
[21] = tested on: Escherichia coli; assay: Bactericidal activity against Escherichia coli ATCC 25922 incubated for 4 hrs followed by culture spread on agar plates and cultured overnight in presence of MgCl2; format: functional; settings: ATCC 25922, 4 h, read-out: MBC>99.9
[22] = tested on: Escherichia coli; assay: Bactericidal activity against Escherichia coli ATCC 25922 incubated for 4 hrs followed by culture spread on agar plates and cultured overnight in presence of 4 mg/ml trypsin; format: functional; settings: ATCC 25922, 4 h, read-out: MBC>99.9
[23] = tested on: Escherichia coli; assay: Bactericidal activity against Escherichia coli ATCC 25922 incubated for 4 hrs followed by culture spread on agar plates and cultured overnight in presence of 2 mg/ml trypsin; format: functional; settings: ATCC 25922, 4 h, read-out: MBC>99.9
[24] = tested on: Escherichia coli; assay: Bactericidal activity against Escherichia coli ATCC 25922 incubated for 4 hrs followed by culture spread on agar plates and cultured overnight in presence of 0.25 mg/ml trypsin; format: functional; settings: ATCC 25922, 4 h, read-out: MBC>99.9
[25] = tested on: Escherichia coli; assay: Bactericidal activity against Escherichia coli ATCC 25922 incubated for 4 hrs followed by culture spread on agar plates and cultured overnight in presence of 0.125 mg/ml trypsin; format: functional; settings: ATCC 25922, 4 h, read-out: MBC>99.9
[26] = tested on: Escherichia coli; assay: Bactericidal activity against Escherichia coli ATCC 25922 incubated for 4 hrs followed by culture spread on agar plates and cultured overnight in presence of 4 mg/ml chymotrypsin; format: functional; settings: ATCC 25922, 4 h, read-out: MBC>99.9
[27] = tested on: Escherichia coli; assay: Bactericidal activity against Escherichia coli ATCC 25922 incubated for 4 hrs followed by culture spread on agar plates and cultured overnight in presence of 2 mg/ml chymotrypsin; format: functional; settings: ATCC 25922, 4 h, read-out: MBC>99.9
[28] = tested on: Escherichia coli; assay: Bactericidal activity against Escherichia coli ATCC 25922 incubated for 4 hrs followed by culture spread on agar plates and cultured overnight in presence of 1 mg/ml chymotrypsin; format: functional; settings: ATCC 25922, 4 h, read-out: MBC>99.9
[29] = tested on: Escherichia coli; assay: Bactericidal activity against Escherichia coli ATCC 25922 incubated for 4 hrs followed by culture spread on agar plates and cultured overnight in presence of 0.5 mg/ml chymotrypsin; format: functional; settings: ATCC 25922, 4 h, read-out: MBC>99.9
[30] = tested on: Escherichia coli; assay: Bactericidal activity against Escherichia coli ATCC 25922 incubated for 4 hrs followed by culture spread on agar plates and cultured overnight in presence of 0.125 mg/ml chymotrypsin; format: functional; settings: ATCC 25922, 4 h, read-out: MBC>99.9
[31] = tested on: Escherichia coli; assay: Antibacterial activity against Escherichia coli ATCC 25922 infected in ICR mouse assessed as log reduction in bacterial cells in liver at 5 mg/kg, ip administered at 5 mg/kg, ip dosed at 0.5, 2, 4 and 8 hrs post-infection; format: functional
[32] = tested on: Escherichia coli; assay: Antibacterial activity against Escherichia coli ATCC 25922 infected in ICR mouse assessed as mouse survival at 5 mg/kg, ip dosed at 0.5, 2, 4 and 8 hrs post-infection; format: functional; settings: ATCC 25922, ip
[33] = tested on: Escherichia coli; assay: Bactericidal activity against Escherichia coli K88 incubated for 4 hrs followed by culture spread on agar plates and cultured overnight; format: functional; settings: K88, 4 h, read-out: MBC>99.9
[34] = tested on: Escherichia coli; assay: Bactericidal activity against Escherichia coli K99 incubated for 4 hrs followed by culture spread on agar plates and cultured overnight; format: functional; settings: K99, 4 h, read-out: MBC>99.9
[35] = tested on: Pseudomonas aeruginosa; assay: Bactericidal activity against Pseudomonas aeruginosa ATCC 27853 incubated for 4 hrs followed by culture spread on agar plates and cultured overnight; format: functional; settings: ATCC 27853, 4 h, read-out: MBC>99.9
[36] = tested on: Pseudomonas aeruginosa; assay: Bactericidal activity against Pseudomonas aeruginosa PAO1 incubated for 4 hrs followed by culture spread on agar plates and cultured overnight; format: functional; settings: PAO1, 4 h, read-out: MBC>99.9
[37] = tested on: Pseudomonas aeruginosa; assay: Bactericidal activity against Pseudomonas aeruginosa 26305 clinical isolates incubated for 4 hrs followed by culture spread on agar plates and cultured overnight; format: functional; settings: Pseudomonas aeruginosa, 26305, 4 h; read-out: MBC>99.9
[38] = tested on: Pseudomonas aeruginosa; assay: Bactericidal activity against Pseudomonas aeruginosa CICC 21625 clinical isolates incubated for 4 hrs followed by culture spread on agar plates and cultured overnight; format: functional; settings: CICC 21625, 4 h, read-out: MBC>99.9
[39] = tested on: Acinetobacter baumannii; assay: Bactericidal activity against Acinetobacter baumannii incubated for 4 hrs followed by culture spread on agar plates and cultured overnight; format: functional; settings: read-out: MBC>99.9
[40] = Stability of the compound assessed as pepsin (unknown origin)-mediated compound hydrolysis after 8 hrs by SDS-PAGE analysis; format: ADME; settings: human

Substance | MIC95 [1] | MIC95 [2] | MIC95 [3] | MIC95 [4] | MIC95 [5] | MIC95 [6] | MIC95 [7] | MIC95 [8] | MIC95 [9] | MIC95 [10] | MIC95 [11] | MIC95 [12] | IC50 [13] | MBC [14] | Ratio [15] | Ratio [16] | Ratio [17] | MBC [18] | MBC [19] | MBC [20] | other results
H-LRPLLRPLLRPLLRPLLRPLLRPLLRPL-NH2 | 1 µM | 2 µM | 1 µM | 1 µM | 1 µM | 1 µM | 1 µM | 2 µM | 2 µM | 8 µM | 4 µM | 2 µM | 19.2 µM | 2 µM | 0.89 | 7.42 | 4.11 | 4 µM | 16 µM | 2 µM | MBC [21]: 2 µM; MBC [22]: 2 µM; MBC [23]: 2 µM; MBC [24]: 2 µM; MBC [25]: 2 µM; MBC [26]: > 64 µM; MBC [27]: > 64 µM; MBC [28]: > 64 µM; MBC [29]: 2 µM; MBC [30]: 2 µM; log(activity) [31]: 1; survival at 5 mg/kg [32]: 37.5%; MBC [33]: 1 µM; MBC [34]: 2 µM; MBC [35]: 4 µM; MBC [36]: 2 µM; MBC [37]: 8 µM; MBC [38]: 8 µM; MBC [39]: 1 µM; Stability [40]: Unstable
H-IRPIIRPIIRPIIRPIIRPIIRPIIRPI-NH2 | 1 µM | 2 µM | 1 µM | 1 µM | 1 µM | 4 µM | 4 µM | 32 µM | 32 µM | 64 µM | 32 µM | 1 µM | 324 µM | 2 µM | 1136.22 | 65.19 | 25.25 | 8 µM | > 128 µM | 2 µM | MBC [21]: 2 µM; MBC [22]: 2 µM; MBC [23]: 2 µM; MBC [24]: 2 µM; MBC [25]: 2 µM; MBC [26]: 2 µM; MBC [27]: 2 µM; MBC [28]: 2 µM; MBC [29]: 2 µM; MBC [30]: 2 µM; log(activity) [31]: 2; survival at 5 mg/kg [32]: 75%; MBC [33]: 1 µM; MBC [34]: 2 µM; MBC [35]: 8 µM; MBC [36]: 8 µM; MBC [37]: 64 µM; MBC [38]: 64 µM; MBC [39]: 1 µM; Stability [40]: Stable
